This is an account of results in patent US12404295B2, “(Hetero)aryl-methyl-thio-beta-D-galactopyranoside derivatives” (Idorsia Pharmaceuticals Ltd, priority 2019, dated 2025).

Like-named read-outs stand apart in the source and are kept apart here.

The target of one test is human Gal-1 (hGal-1) (Homo sapiens (Human), UniProt P09382). In words: competitive binding assay: biotinylated hGal-1 binding to microplate-adsorbed asialofetuin (ASF). The following applies: Table 15; read-out: IC50 (Galectin-1 inhibition). The method, boiled down: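 Spectrophotometric competition readout: after compound and biotinylated hGal-1 (300-1000 ng/mL) sit 3 h at 4° C on adsorbed asialofetuin, streptavidin-peroxidase (1 h, 4° C) and ABTS reveal residual binding. Reported IC50 values are means of repeat runs.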

For the next test, the target named is human Gal-3 (hGal-3) (Homo sapiens (Human), UniProt P17931). Put plainly: competitive binding assay: biotinylated hGal-3 binding to microplate-adsorbed asialofetuin (ASF). The method, boiled down: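 Serially diluted compounds compete with biotinylated hGal-3 binding to adsorbed asialofetuin (3 hours, 4° C). After washing, streptavidin-peroxidase at 80 ng/mL for 1 hour at 4° C, with ABTS colour read-out. IC50 values are averaged over repeated runs.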

[1] abbreviates: Table 5, read-out: IC50 (Gal-3 inhibition).

Sequence of human Gal-3 (hGal-3) (P17931 whole entry): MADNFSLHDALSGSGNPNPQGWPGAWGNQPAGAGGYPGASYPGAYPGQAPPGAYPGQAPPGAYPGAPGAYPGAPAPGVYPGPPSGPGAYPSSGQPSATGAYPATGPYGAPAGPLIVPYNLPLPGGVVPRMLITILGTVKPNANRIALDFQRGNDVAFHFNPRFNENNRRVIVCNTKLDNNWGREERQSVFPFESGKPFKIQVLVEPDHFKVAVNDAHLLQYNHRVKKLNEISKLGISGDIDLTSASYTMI
Sequence of human Gal-1 (hGal-1) (P09382 whole entry): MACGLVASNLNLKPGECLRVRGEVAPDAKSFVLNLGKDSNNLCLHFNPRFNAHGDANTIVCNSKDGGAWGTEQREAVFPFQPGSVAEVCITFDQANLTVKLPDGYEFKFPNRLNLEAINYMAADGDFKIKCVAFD

For the molecule `Cc1ccccc1[C@H](S[C@@H]1O[C@H](CO)[C@H](O)[C@H](n2cc(-c3cc(F)c(F)c(F)c3)nn2)[C@H]1O)C1(O)CCCC1` [Example 2.38.102S., (2S,3R,4S,5R,6R)-2-(((S)-(1-Hydroxycyclopentyl)(o-tolyl)methyl)thio)-6-(hydroxymethyl)-4-(4-(3,4,5-trifluorophenyl)-1H-1,2,3-triazol-1-yl)tetrahydro-2H-pyran-3,5-diol], the IC50 was 17000 nM at human Gal-1 (hGal-1) and 2750 nM at human Gal-3 (hGal-3) (setting [1]).

Take `CC(C)(O)[C@H](S[C@@H]1O[C@H](CO)[C@H](O)[C@H](n2cc(-c3cc(F)c(F)c(F)c3)nn2)[C@H]1O)c1ccccc1C1CC1` [Example 2.31.106R., (2S,3R,4S,5R,6R)-2-(((R)-1-(2-cyclopropylphenyl)-2-hydroxy-2-methylpropyl)thio)-6-(hydroxymethyl)-4-(4-(3,4,5-trifluorophenyl)-1H-1,2,3-triazol-1-yl)tetrahydro-2H-pyran-3,5-diol]: the IC50 at human Gal-1 (hGal-1) was 210 nM; at human Gal-3 (hGal-3) (Gal-3 inhibition, binding of biotinylated hGal-3 to ASF, mean values, read-out: IC50), 140 nM.

For `Cc1nc(C)c([C@@H](S[C@@H]2O[C@H](CO)[C@H](O)[C@H](n3cc(-c4cc(F)c(F)c(F)c4)nn3)[C@H]2O)C2(O)CCCCC2)nc1C` [Example 2.39.119R., (2S,3R,4S,5R,6R)-2-(((R)-(1-Hydroxycyclohexyl) (3,5,6-trimethylpyrazin-2-yl)methyl)thio)-6-(hydroxymethyl)-4-(4-(3,4,5-trifluorophenyl)-1H-1,2,3-triazol-1-yl)tetrahydro-2H-pyran-3,5-diol], the results for the IC50 on human Gal-1 (hGal-1) and at human Gal-3 (hGal-3) (setting [1]) were 730 nM and 70 nM, respectively.

Take `CO[C@@H]1[C@@H](n2cc(-c3ccc(Cl)c(F)c3F)nn2)[C@@H](O)[C@@H](CO)O[C@H]1SC(c1ncccc1C)C1(O)CCC(F)(F)CC1` (stereo partly drawn) [Example 22.44.126.I., (2R,3R,4S,5R,6S)-4-(4-(4-Chloro-2,3-difluorophenyl)-1H-1,2,3-triazol-1-yl)-6-(((4,4-difluoro-1-hydroxycyclohexyl)(3-methylpyridin-2-yl)methyl)thio)-2-(hydroxymethyl)-5-methoxytetrahydro-2H-pyran-3-ol]: the IC50 at human Gal-1 (hGal-1) amounted to 920 nM; at human Gal-3 (hGal-3) (Table 14, read-out: IC50 (Gal-3 inhibition)) it was 70 nM.

With `CC(C)c1ccccc1[C@@H](S[C@@H]1O[C@H](CO)[C@H](O)[C@H](n2cc(-c3cc(F)c(F)c(F)c3)nn2)[C@H]1O)C1(O)CCC(F)(F)CC1` [Example 2.44.105R., (2S,3R,4S,5R,6R)-2-(((R)-(4,4-Difluoro-1-hydroxycyclohexyl)(2-isopropylphenyl)methyl)thio)-6-(hydroxymethyl)-4-(4-(3,4,5-trifluorophenyl)-1H-1,2,3-triazol-1-yl)tetrahydro-2H-pyran-3,5-diol [1,3-di-deoxy-1-((4,4-difluoro-1-hydroxy-cyclohexan-1-yl)-(2-(-isopropyl)phenyl)methyl-(R)-thio)-3-[4-(3,4,5-trifluorophenyl)-1H-1,2,3-triazol-1-yl]-β-D-galactopyranoside]], the concentration for half-maximal inhibition (IC50) was 40 nM on human Gal-1 (hGal-1) and 60 nM on human Gal-3 (hGal-3) (setting [1]).

Take `CO[C@@H]1[C@@H](n2cc(-c3cc(F)c(F)c(F)c3)nn2)[C@@H](O)[C@@H](CO)O[C@H]1S[C@H](c1nocc1C)C1(O)CCCCC1` [Example 2.39.120R.I., (2R,3R,4S,5R,6S)-6-(((R)-(1-Hydroxycyclohexyl)(4-methylisoxazol-3-yl)methyl)thio)-2-(hydroxymethyl)-5-methoxy-4-(4-(3,4,5-trifluorophenyl)-1H-1,2,3-triazol-1-yl)tetrahydro-2H-pyran-3-ol]: the IC50 stood at 560 nM on human Gal-1 (hGal-1) and 250 nM at human Gal-3 (hGal-3) (Table 10, 2-OMe-Gal inhibitors, read-out: IC50 (Gal-3 inhibition)).

For `CO[C@@H]1[C@@H](n2cc(-c3cc(F)c(F)c(F)c3)nn2)[C@@H](O)[C@@H](CO)O[C@H]1S[C@H](c1nc(C)c(C)nc1C)C1(O)CCC(F)(F)CC1` [Example 2.44.119R.I., (2R,3R,4S,5R,6S)-6-(((R)-(4,4-Difluoro-1-hydroxycyclohexyl)(3,5,6-trimethylpyrazin-2-yl)methyl)thio)-2-(hydroxymethyl)-5-methoxy-4-(4-(3,4,5-trifluorophenyl)-1H-1,2,3-triazol-1-yl)tetrahydro-2H-pyran-3-ol], the IC50 on human Gal-1 (hGal-1) turned out to be 450 nM; at human Gal-3 (hGal-3) (Table 11, read-out: IC50 (Gal-3 inhibition)) it was 90 nM.

As usually defined, the IC50 is the concentration at which inhibition is half-maximal.
